Results reported in patent US20030170297A1, “Lipid-based drug delivery systems containing phospholipase a2 degradable lipid derivatives for topical application to the skin” (priority 2000, published 2003).
“And” between values parts separate entries of the source, which are not always exact repeats. Equal entries are not always repeated.

Columns and labels:
[1] = target: T1, Snake venom PLA2 (Agkistrodon piscivorus piscivorus) (Agkistrodon piscivorus piscivorus, UniProt P51972); assay: PLA2-controlled calcein release across non-hydrolysable D-O-SPC target membrane (micelle or liposome carriers); assay type: biochemical
T1 construct: This PLA2 enzyme belongs to the class of low-molecular weight 14 kD secretory enzymes; from tissue; host or cells: snake venom of Agkistrodon piscivorus piscivorus
T1 sequence (P51972 1-123): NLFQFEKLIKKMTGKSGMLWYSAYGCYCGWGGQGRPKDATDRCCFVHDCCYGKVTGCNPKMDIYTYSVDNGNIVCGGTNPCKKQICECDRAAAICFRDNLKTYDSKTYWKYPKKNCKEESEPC
Procedure: Multilamellar model membrane target liposomes were made in the presence of fluorescent calcein in a self-quenching concentration of 20 mM by hydrating a film of 1,2-O-dioctadecyl-sn-glycero-3-phosphatidylcholines (D-O-SPC) in a HEPES buffer solution at pH=7.5 for one hour at 10° C. above the phase transition temperature (Tm=55° C.). Unilamellar liposomes were made by extruding the multilamellar liposomes ten times through two stacked 100 nm polycarbonate filters. The unilamellar liposomes were rapidly cooled to a temperature below the transition temperature, and the calcein-containing liposomes were separated from free calcein using a chromatographic column packed with Sephadex G-50. […] (1-O-DPPE-PEG350), di-octadecanoyl-sn-glycero-3-phosphoethanolamine-N-[methoxy(polyethylene glycol)-750 (DSPE-PEG750). were prepared as described in example 6. Calcein release from the target liposomes is determined by measuring the fluorescent intensity at 520 nm after excitation at 492 nm.
The concentrations of D-O-SPC and polymer-lipid micelles were 25 μM. Snake venom PLA2 (Agkistrodon piscivorus piscivorus) was added (25 nM) to initiate the hydrolytic reaction leading to instant formation of the polymer-lyso-1-O-DPPE and the free fatty acid hydrolysis products. […] The percentage of calcein released is determined as described in example 3.
The experimental model system consists of a negatively charged liposome carrier and a model target membrane. The carrier is a 100 nm unilamellar liposome made of dipalmitoyl phosphatidylcholine lipids (DPPC) with small amounts (2.5 mol %) of negatively charged lipid of the type dipalmitoyl phosphatidylethanolamine (DPPE)—PEG2000. The target membrane is another liposome made of 1,2-O-dioctadecyl-sn-glycero-phosphatidylcholine (D-O-SPC) which is a phospholipid where the acyl linkages of the stearoyl chains are ether bonds. In contrast to DPPC, D-O-SPC is inert towards PLA2-catalysed hydrolysis thereby mimicking the stability of an intact target cell membrane toward degradation by its own enzymes. This experimental assay, which permits simultaneous as well as separate investigation of the effect of destabilisers at the carrier liposomes and the effect of enhancers at the target membrane, involves entrapment of a water-soluble fluorescent calcein model drug in a self-quenching concentration, in the interior of the non-hydrolysable target liposome, rather than in the carrier liposome. The enhanced level of extracellular PLA2 at the target membrane can then be simulated by adding extracellular PLA2 to initiate the hydrolytic reaction in a suspension of the carrier and target liposomes. The permeation of calcein across the D-O-SPC target membrane is subsequently monitored by the increase in fluorescence. In order to investigate the effect of the presence of small amounts of negatively charged lipids in the carrier liposome, a similar experiment was performed with conventional bare DPPC liposomes. Furthermore, in order to compare and discriminate the permeability enhancing effect of lyso-phospholipids from that of free fatty acids, experiments without enzymes were carried out where lyso-phospholipids and free fatty acids were added simultaneously or separately to the target liposomes.
DPPC, DCPC, D-O-SPC, and DPPE-PEG2000 were obtained from Avanti Polar Lipids. Purified snake venom PLA2 (Agkistrodon piscivorus piscivorus) was a generous gift from dr. R. L. Biltonen. This PLA2 enzyme belongs to the class of low-molecular weight, 14 kD secretory enzymes which display structural similarity to human extracellular phospholipase A2.

[2] = target: T2, phospholipase A2 (PLA2 from Agikistrodon piscivorus piscivorus) (Agkistrodon piscivorus piscivorus, UniProt P51972); assay: PLA2 reaction time profile, lag-time and HPLC percent hydrolysis of unilamellar liposomes; assay type: biochemical; conditions: FIG. 3, liposomes composed of 1-O-DPPC, after PLA2 addition
T2 construct: This PLA2 enzyme belongs to the class of low-molecular weight 14 kD secretory enzymes; from tissue; host or cells: snake venom of Agkistrodon piscivorus piscivorus
T2 sequence (P51972 1-123): T1 sequence (P51972 1-123)
Procedure: Phospholipase A2 reaction profile and lag time measurements Purified snake-venom phospholipase A2 (PLA2 from Agikistrodon piscivorus piscivorus) has been isolated according to the procedure of Maraganore et al., J. Biol. Chem. 259, 13839-13843. […] Assay conditions for the PLA2 reaction time profile shown in FIG. 2 and the lag-time and percent hydrolysis reported in Table 1 were: 0.15 mM unilamellar liposomes, 150 nM PLA2, 150 mM KCL, 10 mM HEPES (pH 7.5), 1 mM NaN3, 30 μM CaCl2, and 10 μM EDTA.
Lag-time and percent hydrolysed 1-O-DPPC at 41° C. as determined by HPLC. The lipid concentration was 0.150 mM in a 10 mM HEPES-buffer (pH=7.5).
The catalytic reaction was initiated by adding 8.9 μL of a 42 μM PLA2 (150 nM) stock solution to 2.5 ml of the thermostated liposome suspension (0.150 mM) equilibrated for 800 sec prior to addition of PLA2. The characteristic lag-burst behaviour of PLA2 towards the liposomes is signalled by a sudden increase in the intrinsic fluorescence from PLA2 at 340 nm after excitation at 285 nm followed by a concomitant decrease in the 90° light scattering from the lipid suspension (Hønger et al., Biochemistry 35, 9003-9006). […] The turnover of the PLA2 catalysed lipid hydrolysis of 1-O-DPPC to lyso-1-O-PPC was measured by HPLC (see Table 1). […]

[3] = Calcein release across target membrane on adding lyso-phospholipid and fatty acid in the absence of PLA2; conditions: absence of PLA2, 25 μM target membranes, 39° C., FIG. 12
From the text: The experimental model system consists of a negatively charged liposome carrier and a model target membrane. The carrier is a 100 nm unilamellar liposome made of dipalmitoyl phosphatidylcholine lipids (DPPC) with small amounts (2.5 mol %) of negatively charged lipid of the type dipalmitoyl phosphatidylethanolamine (DPPE)—PEG2000. The target membrane is another liposome made of 1,2-O-dioctadecyl-sn-glycero-phosphatidylcholine (D-O-SPC) which is a phospholipid where the acyl linkages of the stearoyl chains are ether bonds. In contrast to DPPC, D-O-SPC is inert towards PLA2-catalysed hydrolysis thereby mimicking the stability of an intact target cell membrane toward degradation by its own enzymes. […] The permeation of calcein across the D-O-SPC target membrane is subsequently monitored by the increase in fluorescence. […]
Multilamellar target liposomes in the presence of fluorescent calcein in a self-quenching concentration of 20 mM were made by hydrating a film of D-O-SPC in a HEPES buffer solution at pH=7.5 for one hour at 10° C. above the phase transition temperature Tm=55° C. […] Calcein release from the target liposomes is determined by measuring the fluorescent intensity at 520 nm after excitation at 492 nm. […]

[4] = target: T3, phospholipase A2 (A. piscivorus piscivorus) (Agkistrodon piscivorus piscivorus, UniProt P51972)
T3 sequence (P51972 1-123): T1 sequence (P51972 1-123)
Procedure: The hydrolysis of micelles composed DSPE-PEG750 was followed by analysis of the amount of stearic acid generated. The catalytic reaction was initiated by adding 8.9 μL of a 42 μM PLA2 (150 nM) stock solution to 2.5 ml a thermostated micelle suspension of DSPE-PEG750 (0.150 mM) equilibrated at 45° C. for 600 seconds prior to addition of PLA2. The characteristic burst behaviour of PLA2 towards the micelles is signalled by a sudden increase in the intrinsic fluorescence from PLA2 at 340 nm after excitation at 285 nm followed by a concomitant decrease in the 90° light scattering from the lipid suspension (Hønger et al., Biochemistry 35, 9003-9006). Samples for HPLC analysis of the amount of stearic acid generated were taken before adding PLA2 and 100 sec after the observed lag-time. […] HPLC analysis was made using a 5 μm diol column, a mobile phase composed of chloroform/methanol/water (730:230:30, v/v) and an evaporative light scattering detector (see example 2).

Molecule: 1—hexadecyl-2-hexadecanoyl-sn-glycero-3-phosphoethanolamine-N-[methoxy(poly-ethylene glycol)-2000] [DPPE-PEG2000]
- rate of release of calcein across target membrane versus bare DPPC carriers ([1]; DPPC + 2.5 mol % DPPE-PEG2000 carriers, 37° C.): dramatically enhanced
- change of lag time versus bare DPPC carriers ([1]; DPPC carrier liposomes with 2.5 mol % DPPE-PEG2000, 37° C.): dramatic decrease in the lag time

Molecule: CCCCCCCCCCCCCCCCOC[C@H](COP(=O)([O-])OCC[N+](C)(C)C)OC(=O)CCCCCCCCCCCCCCC [1-O-DPPC]
- amount of 1-O-DPPC after the lag-burst (HPLC; 100% before PLA2) [2]: 21%

Molecule: CCCCCCCCCCCCCCCCCCOC[C@H](COP(=O)([O-])OCC[N+](C)(C)C)OCCCCCCCCCCCCCCCCCC [D-O-SPC, 1,2-O-dioctadecyl-sn-glycero-3-phosphatidylcholines]
- behaviour towards PLA2-catalysed hydrolysis ([1]; target membrane lipid): inert

Molecule: CCCCCCCCCC(=O)OC[C@H](COP(=O)([O-])OCC[N+](C)(C)C)OC(=O)CCCCCCCCC [DCPC, didecanoyl phosphatidylcholine]
- calcein release across target membrane with short-chain phospholipid in carrier PEG-liposomes ([1]; small amount of DCPC in carrier PEG-liposomes, FIG. 11a): very fast

Molecule: CC(C)CCC[C@@H](C)[C@H]1CC[C@H]2[C@@H]3CC=C4C[C@@H](O)CC[C@]4(C)[C@H]3CC[C@]12C [cholesterol]
- effect on extracellular PLA2 activity ([1]; large amount (≈20 mol %) incorporated into liposomes, data not shown): deactivated
- effect on extracellular PLA2 activity ([1]; small amount (≈3 mol %) in liposomes): activates

Molecule: CCCCCCCCCCCCCCCC(=O)O [fatty acid, palmitic acid]
- rate of calcein release across the target membrane, added separately [3]: increased rate of calcein release

Molecule: di-octadecanoyl-sn-glycero-3-phosphoethanolamine-N-[methoxy(polyethylene glycol)-750 [DSPE-PEG750]
- amount of stearic acid generated by hydrolysis ([4]; 0.150 mM DSPE-PEG750 micelles, 150 nM PLA2, 45° C.): 0.156 mM and 0.157 mM
- hydrolysis of DSPE-PEG750 to lyso-DSPE-PEG750 and stearic acid ([4]; 0.150 mM micelles, 150 nM PLA2, 45° C., 100 sec after lag time): 100%
- observed lag time ([4]; DSPE-PEG750 micelles 0.150 mM, 45° C.): 10 s
